Calls of active or inactive are those of the source.
Key:
[1] = Luminescence Cell-Based Dose Response HTS to Identify Activators of Luciferase Translation or Activity in H4 […] Cells. [Related pubchem assays: 1829 (Project Summary), 1814 (Primary HTS)]; format: functional
H4 = experiment: Luminescence Cell-Based Dose Response HTS to Identify Activators of 5'UTR Stem-Loop Driven Prion Protein mRNA Translation in H4 Neuroglioblastoma Cells. [Related pubchem assays: 1829 (Project Summary), 1814 (Primary HTS)]; format: functional; conditions: Homo sapiens
[2] = molecular target: T1, Heat shock factor protein 1 (Mus musculus, UniProt P38532); experiment: enhancement of HSF1-driven luciferase signal – cell-based, NIH3T3, luminescence, dose retest, confirmation (AID 435004); format: functional;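 also: stress induced by proteasome inhibitor MG132 added 30 min after compound; luciferase reporter driven by HSF1 response element in NIH3T3 cells; actives raise luminescence as potentiators of the MG132 stress response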
T1 sequence (P38532 whole entry): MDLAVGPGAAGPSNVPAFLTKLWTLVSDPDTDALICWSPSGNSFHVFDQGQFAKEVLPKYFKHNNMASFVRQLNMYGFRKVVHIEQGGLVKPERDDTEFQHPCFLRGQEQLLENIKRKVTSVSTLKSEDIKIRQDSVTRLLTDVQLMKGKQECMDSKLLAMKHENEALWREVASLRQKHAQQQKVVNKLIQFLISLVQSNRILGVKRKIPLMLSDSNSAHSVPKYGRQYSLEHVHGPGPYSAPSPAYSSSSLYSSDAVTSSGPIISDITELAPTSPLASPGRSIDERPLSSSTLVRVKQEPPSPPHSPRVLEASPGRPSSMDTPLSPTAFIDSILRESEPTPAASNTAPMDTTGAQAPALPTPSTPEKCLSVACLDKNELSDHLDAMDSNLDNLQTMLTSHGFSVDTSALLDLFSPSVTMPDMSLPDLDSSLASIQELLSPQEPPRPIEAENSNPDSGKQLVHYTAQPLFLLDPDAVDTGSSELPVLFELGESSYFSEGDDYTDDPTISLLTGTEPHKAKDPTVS

[3] = molecular target: T2, Corticotropin-releasing factor receptor 2/Corticotropin-releasing factor-binding protein (Homo sapiens, UniProt P24387+Q13324); experiment: activators of CRF receptor 2 with binding protein – uHTS hits, confirmation (AID 602473); format: functional; conditions: read-out: EC50_Mean
T2 sequence (Q13324 whole entry): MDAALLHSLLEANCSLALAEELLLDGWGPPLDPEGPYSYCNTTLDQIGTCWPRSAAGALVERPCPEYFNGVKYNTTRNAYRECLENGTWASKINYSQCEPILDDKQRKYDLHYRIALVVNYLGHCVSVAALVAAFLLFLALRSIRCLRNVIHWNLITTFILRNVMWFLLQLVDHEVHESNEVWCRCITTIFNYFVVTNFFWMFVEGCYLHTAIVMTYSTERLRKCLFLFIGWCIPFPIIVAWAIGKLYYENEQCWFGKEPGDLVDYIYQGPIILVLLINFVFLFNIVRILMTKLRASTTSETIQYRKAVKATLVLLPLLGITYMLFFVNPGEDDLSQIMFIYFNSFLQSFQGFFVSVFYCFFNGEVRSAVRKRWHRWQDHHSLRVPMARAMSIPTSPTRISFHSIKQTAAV
T2 sequence (P24387 whole entry): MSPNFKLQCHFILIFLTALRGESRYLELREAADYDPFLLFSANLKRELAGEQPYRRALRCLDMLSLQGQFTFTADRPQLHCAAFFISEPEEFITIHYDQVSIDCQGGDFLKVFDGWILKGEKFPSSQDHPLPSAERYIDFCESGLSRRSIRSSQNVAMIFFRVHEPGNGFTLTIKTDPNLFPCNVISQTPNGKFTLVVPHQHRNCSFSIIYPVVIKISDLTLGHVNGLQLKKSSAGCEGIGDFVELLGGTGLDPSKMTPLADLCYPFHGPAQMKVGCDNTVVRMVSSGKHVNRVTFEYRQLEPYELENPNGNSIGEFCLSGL

[4] = molecular target: T3, Zinc finger protein mex-5 (Caenorhabditis elegans, UniProt Q9XUB2); experiment: potency of MEX-5 RNA-binding blockers – biochemical, C. elegans, fluorescence polarization, dose response (AID 1960)
T3 sequence (Q9XUB2 whole entry): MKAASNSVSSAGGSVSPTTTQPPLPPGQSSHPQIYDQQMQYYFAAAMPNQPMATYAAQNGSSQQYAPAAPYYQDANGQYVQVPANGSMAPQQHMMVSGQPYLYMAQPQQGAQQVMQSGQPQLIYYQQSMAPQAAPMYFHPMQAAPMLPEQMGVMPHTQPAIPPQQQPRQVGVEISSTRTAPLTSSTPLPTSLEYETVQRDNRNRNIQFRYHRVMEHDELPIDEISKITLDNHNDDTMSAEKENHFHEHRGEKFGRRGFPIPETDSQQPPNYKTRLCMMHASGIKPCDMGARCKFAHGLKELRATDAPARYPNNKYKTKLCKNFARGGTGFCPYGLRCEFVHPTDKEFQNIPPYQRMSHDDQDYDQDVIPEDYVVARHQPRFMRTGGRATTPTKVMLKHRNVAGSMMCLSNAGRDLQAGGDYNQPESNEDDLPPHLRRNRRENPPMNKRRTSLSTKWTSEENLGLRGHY

[5] = Luminescence Cell-Based Dose Retest to Confirm Inhibitors of Cancer Stem Cells. [Related pubchem assays (depositor defined):AID2717, AID2721]; format: functional; conditions: Homo sapiens
[6] = molecular target: T4, RNA-binding protein pos-1 (Caenorhabditis elegans, UniProt G5EF15); experiment: disruptors of C. elegans POS-1 RNA interaction – biochemical, fluorescence polarization, dose response (AID 1964);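 also: purified POS-1 fused to maltose binding protein made in E. coli; potency of compounds blocking POS-1 binding to fluorescent RNA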
T4 sequence (G5EF15 whole entry): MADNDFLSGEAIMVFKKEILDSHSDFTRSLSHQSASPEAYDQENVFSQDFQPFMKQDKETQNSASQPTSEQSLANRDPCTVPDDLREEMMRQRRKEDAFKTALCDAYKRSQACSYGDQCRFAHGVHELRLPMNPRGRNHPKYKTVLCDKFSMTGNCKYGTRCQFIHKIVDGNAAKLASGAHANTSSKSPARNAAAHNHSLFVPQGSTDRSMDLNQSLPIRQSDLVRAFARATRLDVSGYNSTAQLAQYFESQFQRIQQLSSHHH

cells [7] = format: functional, cell-based
cells [8] = format: functional, cell-based; remark: listed apart in the source
Cytochrome P450 2C19 = Cytochrome P450 2C19 (Homo sapiens, UniProt P33261); experiment: Cytochrome panel assay with activity outcomes. Panel member name: p450-cyp2c19 Compounds with AC50 equal or less than 10 uM are considered active; format: functional
cells [9] = format: functional
[10] = luciferase reporter signal suppression in cells – H4 neuroglioma cells, luminescence, dose response (AID 1990); format: functional, cell-based
INS1 = experiment: INS-1E survival protection against cytokine death – cell-based, luminescence, retest, dose response (AID 449756); format: functional; conditions: Rattus norvegicus;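 also: cell death triggered by IL-1 beta plus TNF-alpha plus IFN-gamma mixture; protective hits raise ATP signal compared with cytokine alone wells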
[11] = alpha-synuclein stem-loop luciferase translation blockers – H4 neuroglioma cells, luminescence, confirmation (AID 1988); format: functional, cell-based
[12] = Luminescence Cell-Based Dose Response HTS to Identify Inhibitors of 5'UTR Stem-Loop Driven Prion Protein mRNA Translation in H4 Neuroglioblastoma Cells. [Related pubchem assays: 1827 (Project Summary), 1813 (Primary HTS)]; format: functional
[13] = Trypanosoma cruzi growth suppression in host cells – NIH3T3 host cells, beta-gal luminescence, confirmation (AID 2044); format: functional, cell-based;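 also: intracellular parasites grown in NIH/3T3 mouse fibroblasts as host cells; luminescent beta-galactosidase reporter signal from transgenic T. cruzi replicating inside host cells; inhibitors lower the luminescence signal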
[14] = NIH3T3 cell viability loss – ATP luminescence, mouse fibroblasts, counter-screen, dose response (AID 2010); format: functional, cell-based;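 also: cells exposed to compound for about 90 hours before reading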
P388/ADR = experiment: cells; format: functional; conditions: Mus musculus
SN12K1 = experiment: cells; format: functional; conditions: Homo sapiens

Cytochrome P450 2C19, sequence (P33261 whole entry): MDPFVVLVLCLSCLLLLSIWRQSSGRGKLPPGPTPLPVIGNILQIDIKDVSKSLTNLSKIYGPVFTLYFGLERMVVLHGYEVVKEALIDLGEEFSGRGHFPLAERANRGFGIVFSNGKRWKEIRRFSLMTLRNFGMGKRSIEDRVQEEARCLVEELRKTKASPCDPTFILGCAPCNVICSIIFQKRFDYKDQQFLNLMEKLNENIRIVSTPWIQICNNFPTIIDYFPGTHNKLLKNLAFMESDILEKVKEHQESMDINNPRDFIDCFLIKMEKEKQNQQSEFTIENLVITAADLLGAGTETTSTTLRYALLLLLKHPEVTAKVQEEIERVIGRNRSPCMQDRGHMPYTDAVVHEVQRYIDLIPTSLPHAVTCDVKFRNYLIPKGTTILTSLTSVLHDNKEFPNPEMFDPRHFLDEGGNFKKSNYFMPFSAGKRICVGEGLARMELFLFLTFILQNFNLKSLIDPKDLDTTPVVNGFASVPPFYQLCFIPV

With `O=C(c1ccccc1)c1cc2cc(Cl)ccc2[nH]1` as the compound, how does the EC50 [1] read?
Its EC50 is 94.6 µM (active).

What about the EC50 (H4) of the same compound?
Its EC50 is 13.9 µM (active).

With `Cc1ccc(C(c2nnnn2C2CCCC2)N2CCc3ccccc32)cc1` (centres undefined) as the compound, how does the EC50 [2] read?
Its EC50 is > 260 µM (inactive).

For `CNC(=O)c1c(NC(=O)c2ccc(S(=O)(=O)N3CCCc4ccccc43)cc2)sc2c1CCN(C)C2`, which EC50 [3] is on record?
Its EC50 is 6.81 µM (active).

What about the EC50 [4] of the same compound?
Its EC50 is > 300 µM (not active).

What about the AC50 [5] of the same compound?
Its AC50 is 206 nM (active).

What about the EC50 [6] of the same compound?
Its EC50 is > 300 µM (not active).

With `S=C(NCc1ccco1)N1CCN(c2ccccc2Cl)CC1` as the compound, how does the EC50 [2] read?
Its EC50 is > 260 µM (inactive).

What does the source list for `CS(=O)(=O)c1cccc(C(=O)N(CCc2ccccc2)Cc2cccs2)c1`?
EC50 (cells [7]): > 350 µM (not active); EC50 (cells [8]): > 350 µM (not active)

What does the source list for `CC(NC(=O)c1cc2c(s1)CS(=O)(=O)C2)c1ccccc1` (centres undefined)?
EC50 (cells [7]): > 350 µM (not active); EC50 (cells [8]): > 350 µM (not active)

With `Cc1nc2nc3c(cn2n1)C(=O)CC(c1ccccc1)C3` (centres undefined) as the compound, how does the EC50 (cells [7]) read?
Its EC50 is > 350 µM (not active).

For `O=S1(=O)N=C(NCC(c2ccco2)N2CCCCC2)c2ccccc21` (centres undefined), which EC50 [2] is on record?
Its EC50 is > 260 µM (inactive).

With `c1ccc2[nH]c(NC3=NCCC3)nc2c1` as the compound, how does the AC50 (Cytochrome P450 2C19) read?
Its AC50 is “inconclusive”.

And the IC50 (cells [9])?
Its IC50 is 12.2 µM (active).

For `CCc1cccc(C)c1NC(=S)N1CCCCC1c1cccnc1` (centres undefined), which EC50 [3] is on record?
Its EC50 is 6.05 µM (active).

With `C=CCN1C(c2cccc(C(F)(F)F)c2)=CS/C1=C(\C#N)c1nnc(N2CCOCC2)n1-c1ccccc1` as the compound, how does the EC50 [3] read?
The EC50 was > 53 µM (inactive).

Which EC50 [2] does the source give for `C/C(=N\OC(=O)c1ccc(F)cc1)c1ccc(F)c(F)c1` here?
The EC50 was > 260 µM (inactive).

Which EC50 [3] does the source give for `CN(C)c1ccc(C=NN2C(=O)CSC2=S)c(Cl)c1` here?
The EC50 was > 53 µM (inactive).

Which EC50 [3] does the source give for `O=C(CNS(=O)(=O)c1ccc([N+](=O)[O-])cc1)N/N=C\c1ccc(O)cc1` here?
The EC50 was 7.12 µM (active).

For `COc1ccccc1N(CC(=O)N/N=C/c1c(O)ccc2ccccc12)S(C)(=O)=O`, which EC50 [10] is on record?
The EC50 was 13.5 µM (active).

What about the AC50 (INS1) of the same compound?
The AC50 was 2.15 µM (active).

What about the EC50 [11] of the same compound?
The EC50 was 8.56 µM (active).

What about the EC50 [12] of the same compound?
Its EC50 is 22.8 µM (active).

What about the EC50 (cells [7]) of the same compound?
Its EC50 is 9.19 µM (active).

Which results are given for `C/C(Cn1nnc([N+](=O)[O-])n1)=N\NC(=O)c1ccncc1`?
EC50 [13]: 214 nM (active); EC50 [14]: > 30 µM (not active); IC50 (cells [9]): 0.3 µM (active)

Which EC50 [2] does the source give for `Cc1ccc(/C=N/N(Cc2ccccc2)c2ccccc2)o1` here?
The EC50 was > 260 µM (inactive).

With `Cc1ccc(/C=N/NC(=O)c2ccc(Br)o2)s1` as the compound, how does the EC50 (cells [7]) read?
The EC50 was > 350 µM (not active).

And the EC50 (cells [8])?
The EC50 was 37.1 µM (active).

Which GI50 (P388/ADR) does the source give for `CC[C@@]1(O)C[C@H](OC2CC(N(C)C)C(OC3CC(O)C(OC4CCC(=O)C(C)O4)C(C)O3)C(C)O2)c2c(cc3c(c2O)C(=O)c2c(O)cccc2C3=O)[C@H]1C(=O)OC` (some centres undefined) here?
Its GI50 is 33.3 nM (active).

What about the GI50 (SN12K1) of the same compound?
Its GI50 is 23.6 nM (active).
